A short description of the data set: Human HepG2 cell viability assay in 384 well format. Particulars: HepG2 cells, read-out: Inhibition. On the set-up: dose 125 nL, time 70.5 hour; concentration not given beside the values. Format: toxicity, cell-based.
Take `Cc1nc(C2CCNC2)nc2c1CCC(=O)N2CC(C)C` (centres undefined): the cytotoxicity at 70.5 h is -3.62%.

For `CCC(=O)N1CCN(C(=O)Nc2cccc(C#N)c2)[C@H]2CS(=O)(=O)C[C@H]21`, the cytotoxicity at 70.5 h was -15.6%.

Turning to `CSCC(CCO)NC(=O)Nc1cccc(Br)c1C` (centres undefined), the cytotoxicity at 70.5 h is -21.2%.

Consider `Cn1cc(N2CC3(CCN(S(C)(=O)=O)C3)CC2=O)cn1` (centres undefined), for which the cytotoxicity at 70.5 h was found to be 2.06%.

As for `O=C(O)C1CCCN1c1nc(C2CC2)cc(C(F)(F)F)n1` (centres undefined), the cytotoxicity at 70.5 h was 2.63%.

Take `CNC(=O)[C@@]12CCO[C@@H]1CCN(S(=O)(=O)c1cccc(C)c1)C2`: the cytotoxicity at 70.5 h was -5.31%.

`CCN(Cc1ccncc1)CC1(O)CCN(C(=O)c2cnn(C)c2)C1` (centres undefined): the cytotoxicity at 70.5 h is -4.91%.

In the case of `CCCc1cc(CNC2CCN(c3nc(C)cc(C)n3)CC2)on1`, the cytotoxicity at 70.5 h is -5.05%.

With `CN(Cc1ccon1)C1CCN(c2cccc(-c3cscn3)c2)CC1`, the cytotoxicity at 70.5 h is -4.4%.

`O=C(COCC(=O)N1CCCCCC1)NCc1cccc(Br)c1`: the cytotoxicity at 70.5 h worked out at 0.154%.

Consider `c1ccc(-c2nc(CN3CCCC3Cn3cncn3)no2)cc1` (centres undefined), for which the cytotoxicity at 70.5 h is -13.3%.

For the compound `COc1ccc(CNC(=O)N2CCOCC2C2CC2)cc1C` (centres undefined), the cytotoxicity at 70.5 h is -3.69%.

For the compound `CC(C)N1CCO[C@H]2CN(C(=O)c3ccc(N(C)C)cc3)C[C@H]21`, the cytotoxicity at 70.5 h is -2.38%.

Consider `CS(=O)(=O)CCCC(=O)Nc1cc(-c2cccc(F)c2F)n[nH]1`, for which the cytotoxicity at 70.5 h was -16.7%.

Consider `c1ccc(-c2cnc(CN3CCCC3Cn3cccn3)o2)cc1` (centres undefined), for which the cytotoxicity at 70.5 h turned out to be 1.69%.

For the compound `CC(C)(C)OC(=O)NCCNC(=O)c1cnc(-c2ccccc2)nc1`, the cytotoxicity at 70.5 h is -0.668%.

Consider `Cc1c(C(=O)N(C)c2ccccc2)cccc1N(C)S(C)(=O)=O`, for which the cytotoxicity at 70.5 h is -7.07%.

On to `CN1CCCN(C[C@@H]2CN(C(=O)CCc3cn[nH]c3)C[C@@H]2CO)CC1`, for which the cytotoxicity at 70.5 h is -3.81%.

`COCC1CC2(CCN(Cc3cccnc3)CC2)CN1c1ncccn1` (centres undefined): the cytotoxicity at 70.5 h is -0.169%.

Take `CC(=O)N1C[C@@H]2CC[C@H](C1)N(Cc1ccc(Cn3cccn3)cc1)C2`: the cytotoxicity at 70.5 h was -19.2%.

In the case of `CCc1n[nH]c(C(=O)NCCn2ccc(C)n2)c1C`, the cytotoxicity at 70.5 h was 17.6%.

Regarding `O=C(c1ccnnc1)N1CC[C@H](OCC2CC2)[C@@H]1Cc1ccncc1`, the cytotoxicity at 70.5 h was -1.15%.

For `Cc1noc(C)c1-c1cccc(C2CN(CC(=O)N(C)C)CCO2)n1` (centres undefined), the cytotoxicity at 70.5 h was -4.85%.

As for `O=C(c1cn(CCN2CCCCC2)nn1)N1CCCCO1`, the cytotoxicity at 70.5 h is 11%.

Regarding `Cc1ccc(CNC(=O)c2cc(Cn3ccnc3C(C)C)[nH]n2)o1`, the cytotoxicity at 70.5 h stood at 20.2%.

In the case of `Cc1noc(C)c1CC(=O)N1CCCC(Cc2ccccn2)C1` (centres undefined), the cytotoxicity at 70.5 h is -7.69%.

`COCCN1CCC2(CCC(=O)N2Cc2csc(C)n2)CC1`: the cytotoxicity at 70.5 h is -7.09%.

Regarding `FC(F)(F)Cn1ccnc1CN1CCCC1c1noc(C2CC2)n1` (centres undefined), the cytotoxicity at 70.5 h was -0.904%.

Take `COc1ccc(C(C)NCc2c[nH]nc2C)cc1Br` (centres undefined): the cytotoxicity at 70.5 h is -6.07%.

As for `O=C1Nc2ccccc2NC12CCN(Cc1nnc(C3CC3)o1)CC2`, the cytotoxicity at 70.5 h is -5.39%.

In the case of `Cc1ccccc1CNC(=O)c1ccccc1-n1cc(CN)cn1`, the cytotoxicity at 70.5 h was -8.06%.

Regarding `CCCc1[nH]n(C)c(=N)c1-c1ccc2c(c1)OCO2`, the cytotoxicity at 70.5 h was -3.98%.

For the compound `CS(=O)(=O)N1CCC(c2nc3ccc(-c4cccc(F)c4)cn3n2)CC1`, the cytotoxicity at 70.5 h is -5.73%.

On to `CCN(C(=O)Nc1cc(C)on1)C(C)c1cccc(O)c1` (centres undefined), for which the cytotoxicity at 70.5 h was -9.79%.

Take `CN(C)C(C(=O)NCC(F)(F)F)c1cccc(F)c1` (centres undefined): the cytotoxicity at 70.5 h was -2.03%.

As to `CC(C(=O)N1CCCN(c2ccc(C#N)cc2)CC1)n1cccn1` (centres undefined), the cytotoxicity at 70.5 h was -3.9%.

Take `Cn1cc(CCC(=O)NCc2ccccc2OC(C)(C)C)cn1`: the cytotoxicity at 70.5 h turned out to be 2.39%.

Consider `Cc1cccc(NC(=O)N2CC(C(=O)NC(C)C)C3(CCOCC3)C2)c1` (centres undefined), for which the cytotoxicity at 70.5 h came out at 9.15%.

In the case of `Cc1cc(C)n(C2CCN(S(C)(=O)=O)CC2)n1`, the cytotoxicity at 70.5 h was determined as 9.79%.

As to `FC(F)Oc1ccc(CN2CCOC3(CCOCC3)C2)cc1Cl`, the cytotoxicity at 70.5 h was found to be 1.46%.

Regarding `Cc1cc(=O)n2ncnc2n1CC(O)c1cc(F)ccc1F` (centres undefined), the cytotoxicity at 70.5 h is -11.1%.

Turning to `CC(C)(C)c1nnc(CN2CCn3c(nnc3C3CC3)C2)o1`, the cytotoxicity at 70.5 h is -0.488%.

Turning to `CCc1cc(N[C@H](C(N)=O)C(C)C)n2nc(C)c(C)c2n1`, the cytotoxicity at 70.5 h is -6.29%.

Take `Cc1ncc(CN(C)C(=O)Nc2ccc(CN3CCOC3=O)cc2)s1`: the cytotoxicity at 70.5 h was -7.05%.

With `COc1ccccc1[C@@H]1CN(Cc2cnn(C)c2C)C[C@H]1C(=O)O`, the cytotoxicity at 70.5 h turned out to be 7.39%.

As to `CC1CN(C(=O)CN(Cc2ccccc2Br)C2CC2)CCO1` (centres undefined), the cytotoxicity at 70.5 h is -0.289%.

`COCC1COCCC12CCN(CCc1ccccc1)CC2` (centres undefined): the cytotoxicity at 70.5 h was -0.938%.

For `CN1C[C@H](O)[C@]2(CCN(C(=O)COc3ccccc3)C2)S1(=O)=O`, the cytotoxicity at 70.5 h was -5.4%.

With `c1cc(CN2CCCn3cnc(COCC4CC4)c3C2)co1`, the cytotoxicity at 70.5 h was -8.86%.

For the compound `COc1ccc2c(c1)C(C(=O)NCCN1CCNC1=O)CC(=O)N2` (centres undefined), the cytotoxicity at 70.5 h was found to be 16.8%.

For the compound `Cc1nn(CCNc2ncnc3c2NC(=O)CN3)c(C)c1Cl`, the cytotoxicity at 70.5 h was -8.12%.

Turning to `CN1CCCN(Cn2nc(-c3ccccc3F)ccc2=O)CC1`, the cytotoxicity at 70.5 h was -5.91%.

On to `CCN1C[C@@H]2[C@@H](OC)CCN(S(=O)(=O)c3ccccc3F)[C@@H]2C1`, for which the cytotoxicity at 70.5 h is -9.34%.

Regarding `O=C(Nc1ccc(=O)n(Cc2ccccc2Cl)c1)C1CC1`, the cytotoxicity at 70.5 h was -23.5%.

As to `CN(CCC1CCCCO1)c1nncc(-c2ccccc2)n1` (centres undefined), the cytotoxicity at 70.5 h was -0.965%.

`CC(C)(C)NC(=O)CCn1ncc2c(Cl)cccc21`: the cytotoxicity at 70.5 h is -5.97%.

Take `c1ccc(CN2CCc3nnc(CN4CCCCC4)n3CC2)nc1`: the cytotoxicity at 70.5 h was 3.32%.

Consider `O=C(NCCN1CCOCC1)c1cc2c(s1)CCN2Cc1cccnc1`, for which the cytotoxicity at 70.5 h was -3.99%.

With `Cc1cc(-c2cc(N)c(=O)n(CC(=O)NCC3CCCCC3)n2)c(C)o1`, the cytotoxicity at 70.5 h was found to be 12.5%.

In the case of `CC(C)Nc1nc(N2CCCC2)nc2c1CN(C(C)C)CC2`, the cytotoxicity at 70.5 h is 0.846%.

`COCC1CN(S(=O)(=O)c2ccc(C)cc2)Cc2c1cnn2C` (centres undefined): the cytotoxicity at 70.5 h is 7.58%.

For `Cc1cc(-c2ccncc2)ccc1OCC(N)=O`, the cytotoxicity at 70.5 h was -5%.

In the case of `CC[C@@H]1N(Cc2ccsc2)CCC[C@]12CCC(=O)N2C`, the cytotoxicity at 70.5 h was 18.9%.

For `CC(=O)N1N=C(c2cccs2)OC1C(=O)NCCc1cccc(Cl)c1` (centres undefined), the cytotoxicity at 70.5 h was 28.8%.

For `Cc1cnc2n(c1=O)C(CC(=O)NCc1cc(-c3cccs3)on1)CS2` (centres undefined), the cytotoxicity at 70.5 h is 55.7%.

Take `CCn1c(C2CCCN2Cc2noc(C(C)(C)C)n2)nc2ccccc21` (centres undefined): the cytotoxicity at 70.5 h was -26.2%.

As to `Cn1ccnc1C(O)c1ccccc1N1CCN(Cc2cccs2)CC1` (centres undefined), the cytotoxicity at 70.5 h was -0.023%.

For the compound `Cc1ccc(-c2noc(C3CCN3C(=O)c3ccc(=O)[nH]n3)n2)s1` (centres undefined), the cytotoxicity at 70.5 h is -4.22%.

For `COCCN1CCC(CNCc2c[nH]nc2C(C)(C)C)CC1`, the cytotoxicity at 70.5 h was 24.7%.

Consider `O=C(c1cccc(CNS(=O)(=O)c2ccccc2F)c1)N1CCCC1`, for which the cytotoxicity at 70.5 h was -16.2%.

Consider `Cc1ccccc1C(=O)NCc1ccnc(N(C)C)c1`, for which the cytotoxicity at 70.5 h turned out to be 0.094%.

In the case of `COCc1noc(CN2C(=O)OC[C@@H]2C(C)C)n1`, the cytotoxicity at 70.5 h came to 19.3%.

For `FC(F)(F)Sc1ccccc1NCc1nc(C2CC2)no1`, the cytotoxicity at 70.5 h was 16.7%.

On to `O=C(Nc1cccn(Cc2ccccc2)c1=O)c1ccncc1F`, for which the cytotoxicity at 70.5 h came to 14.1%.

For the compound `CN(Cc1nc2ccccc2s1)C1CCCN(c2cccnn2)C1` (centres undefined), the cytotoxicity at 70.5 h is -11%.

Regarding `Cc1cc(F)ccc1NS(=O)(=O)c1cc2c(c(C(=O)O)c1)OCCO2`, the cytotoxicity at 70.5 h was -4.92%.

For `CC(=O)N1CCN(c2ccc(Cl)nn2)C(=O)C1`, the cytotoxicity at 70.5 h is -7.52%.

As for `COc1c(C2CCCN2C(=O)Cc2c(C)noc2C)c(C)nn1C` (centres undefined), the cytotoxicity at 70.5 h amounted to 11%.

With `O[C@@H]1C[C@@H](c2nc(-c3ccccc3)no2)N(Cc2ccncc2)C1`, the cytotoxicity at 70.5 h was -1.52%.

On to `CN1CCCC(Cc2ccnc3ccncc23)CC1` (centres undefined), for which the cytotoxicity at 70.5 h came out at 34.2%.

For `Cc1ccccc1CC(=O)NS(=O)(=O)c1cccc2cnccc12`, the cytotoxicity at 70.5 h was -40.8%.

On to `CN(CCNC(=O)c1cnc(-c2ccccc2)nc1)S(C)(=O)=O`, for which the cytotoxicity at 70.5 h was 5.47%.

In the case of `CC(C)CC(=O)NS(=O)(=O)c1ccc(C#N)cc1C(F)(F)F`, the cytotoxicity at 70.5 h is -3.13%.

Regarding `CCN(CC)S(=O)(=O)N1CCCN(CC(=O)NC(C)C)CC1`, the cytotoxicity at 70.5 h amounted to 6.63%.

As to `COCCN1CCN(C(=O)c2ccc(C)cc2F)[C@H]2CS(=O)(=O)C[C@H]21`, the cytotoxicity at 70.5 h is -8.53%.

On to `NC(=O)Cn1c(SCc2noc(-c3ccsc3)n2)nnc1C1CC1`, for which the cytotoxicity at 70.5 h is -1.96%.

As to `CS(=O)(=O)NCCC(=O)NC1CCc2nccn2C1` (centres undefined), the cytotoxicity at 70.5 h is -4.75%.

In the case of `CCOC(=O)N1CCN(Cc2ccc(OCc3nccn3C)cc2)CC1`, the cytotoxicity at 70.5 h came to 1.77%.

Consider `CCN(C(=O)c1nc2c(s1)CCCN2c1ccc(C)nn1)C(C)C`, for which the cytotoxicity at 70.5 h was -3.47%.

Regarding `COCCN1CC(C(=O)N(C)Cc2cc(-c3cccnc3)no2)CC1=O` (centres undefined), the cytotoxicity at 70.5 h was -11.9%.

On to `C[C@@H]1CN(C2CCN(c3ccccc3F)CC2)CC[C@]1(C)O`, for which the cytotoxicity at 70.5 h is -5.09%.

With `CCNC(=O)C1CCCN(C(=O)Nc2cc(C#N)ccc2OCC)C1` (centres undefined), the cytotoxicity at 70.5 h turned out to be 0.887%.

As for `CCOCCN1CCN(Cc2nnc(C3CC3)o2)CC1C` (centres undefined), the cytotoxicity at 70.5 h is -3.62%.

As to `Cc1ccsc1CN(CCCC(F)(F)F)Cc1ccccn1`, the cytotoxicity at 70.5 h was -10.1%.

As to `CCN(Cc1nccn1C)C(=O)c1ccc(NCc2ccc(C)o2)nc1`, the cytotoxicity at 70.5 h was 27.2%.

As for `CCCC(=O)N1CCN(CC(O)COCC)CC1` (centres undefined), the cytotoxicity at 70.5 h came out at 1.27%.

Take `Cc1cnn(CCC(=O)Nc2cccnc2N2CCC(CO)CC2)c1`: the cytotoxicity at 70.5 h is -1.8%.

For `Cc1cnn(CCNCc2nc(-c3ccsc3)oc2C)c1`, the cytotoxicity at 70.5 h was determined as 7.72%.

Regarding `CC(=O)N1CCCN(Cc2ccon2)c2ccccc21`, the cytotoxicity at 70.5 h stood at 18.6%.

The values are drawn from ChEMBL document CHEMBL3507680, “University of Dundee, Gates Library screen for HepG2 cell viability”.
